Reference: patent US20240174624A1, “CHIRAL N-(1,3,4-OXADIAZOLE-2-YL)PHENYL CARBOXYLIC ACID AMIDES AND THEIR USE AS HERBICIDES” (Bayer Aktiengesellschaft, priority 2021, published 2024)

How the values were obtained:
ALOMY = assay: Pre-emergence herbicidal action; format: in vivo, Alopecurus myosuroides; conditions: 20 g a.i./ha, comparative experiment
Excerpt: (§1) Seeds of monocotyledonous and dicotyledonous weed plants and crop plants are laid out in sandy loam soil in wood-fibre pots and covered with soil. The compounds of the invention, formulated in the form of wettable powders (WP) or as emulsion concentrates (EC), are then applied to the surface of the covering soil in the form of an aqueous suspension or emulsion at a water application rate equivalent to 600 to 800 l/ha, with addition of 0.2% wetting agent. After the treatment, the pots are placed in a greenhouse and kept under good growth conditions for the trial plants. The damage to the test plants is scored visually after a test period of 3 weeks by comparison with untreated controls (herbicidal activity in percent (%): 100% activity=the plants have died, 0% activity=like control plants). […] The tables below illustrate, in an illustrative manner, the post-emergence herbicidal action of the compounds of the invention, the herbicidal activity being stated in percent. In the experiments that follow, the herbicidal action of the compounds of the invention and that of the corresponding known racemic compounds closest from WO2012126932 and WO2018202535 were compared under the above-specified conditions by the pre-emergence and post-emergence method. The example numbers given in the tables relate to the compounds disclosed in the respective documents.

AVEFA = assay: Pre-emergence herbicidal action; format: in vivo, Avena fatua; conditions: 20 g a.i./ha, comparative experiment
Excerpt: as §1

MATIN = assay: Pre-emergence herbicidal action; format: in vivo, Matricaria inodora; conditions: 20 g a.i./ha, comparative experiment
Excerpt: as §1

POLCO = assay: Pre-emergence herbicidal action; format: in vivo, Polygonum convolvulus; conditions: 320 g a.i./ha, comparative experiment
Excerpt: as §1

SETVI [1] = assay: Pre-emergence herbicidal action; format: in vivo, Setaria viridis; conditions: 20 g a.i./ha, comparative experiment
Excerpt: as §1

STEME [2] = assay: Pre-emergence herbicidal action; format: in vivo, Stellaria media; conditions: comparative experiment
Excerpt: as §1

VERPE [3] = assay: Pre-emergence herbicidal action; format: in vivo, Veronica persica; conditions: comparative experiment
Excerpt: as §1

CYPES [4] = assay: Pre-emergence herbicidal action; format: in vivo, Cyperus esculentus; conditions: 20 g a.i./ha, comparative experiment
Excerpt: as §1

ZEAMX [5] = assay: Pre-emergence damage to crop plants; format: in vivo, Zea mays; conditions: comparative experiment
Excerpt: as §1

SETVI [6] = assay: Post-emergence herbicidal action; format: in vivo, Setaria viridis; conditions: 5 g a.i./ha, comparative experiment
Protocol: (§2) Seeds of monocotyledonous and dicotyledonous weed and crop plants are laid out in sandy loam soil in wood-fibre pots, covered with soil and cultivated in a greenhouse under good growth conditions. 2 to 3 weeks after sowing, the test plants are treated at the one-leaf stage. The compounds of the invention, formulated in the form of wettable powders (WP) or as emulsion concentrates (EC), are then sprayed onto the green parts of the plants in the form of an aqueous suspension or emulsion at a water application rate equating to 600 to 800 l/ha, with addition of 0.2% wetting agent. After the test plants have been left to stand in the greenhouse under optimal growth conditions for about 3 weeks, the action of the preparations is assessed visually in comparison to untreated controls (herbicidal action in percent (%): 100% activity=the plants have died, 0% activity=like control plants). […] The tables below illustrate, in an illustrative manner, the post-emergence herbicidal action of the compounds of the invention, the herbicidal activity being stated in percent. In the experiments that follow, the herbicidal action of the compounds of the invention and that of the corresponding known racemic compounds closest from WO2012126932 and WO2018202535 were compared under the above-specified conditions by the pre-emergence and post-emergence method. The example numbers given in the tables relate to the compounds disclosed in the respective documents.

STEME [7] = assay: Post-emergence herbicidal action; format: in vivo, Stellaria media; conditions: 5 g a.i./ha, comparative experiment
Protocol: as §2

VERPE [8] = assay: Post-emergence herbicidal action; format: in vivo, Veronica persica; conditions: 5 g a.i./ha, comparative experiment
Protocol: as §2

CYPES [9] = assay: Post-emergence herbicidal action; format: in vivo, Cyperus esculentus; conditions: 20 g a.i./ha, comparative experiment
Protocol: as §2, with “The example numbers given in the tables relate to the compounds disclosed in the respective documents.” left out

ZEAMX [10] = assay: Post-emergence damage to crop plants; format: in vivo, Zea mays; conditions: 20 g a.i./ha, comparative experiment
Protocol: as §2

LOLRI [11] = assay: Pre-emergence herbicidal action; format: in vivo, Lolium rigidum; conditions: 20 g a.i./ha, comparative experiment
Excerpt: as §1

GLXMA = assay: Pre-emergence damage to crop plants; format: in vivo, Glycine max; conditions: comparative experiment
Excerpt: as §1

DIGSA = assay: Post-emergence herbicidal action; format: in vivo, Digitaria sanguinalis; conditions: 20 g a.i./ha, comparative experiment
Protocol: as §2

LOLRI [12] = assay: Post-emergence herbicidal action; format: in vivo, Lolium rigidum; conditions: 20 g a.i./ha, comparative experiment
Protocol: as §2, with “The example numbers given in the tables relate to the compounds disclosed in the respective documents.” left out

TRZAS = assay: Post-emergence damage to crop plants; format: in vivo, Triticum aestiva; conditions: 20 g a.i./ha, comparative experiment
Protocol: as §2

BRSNW = assay: Post-emergence damage to crop plants; format: in vivo, Brassica napus; conditions: 20 g a.i./ha, comparative experiment
Protocol: as §2, with “The example numbers given in the tables relate to the compounds disclosed in the respective documents.” left out

`Cc1nnc(NC(=O)c2ccc(C(F)(F)F)c([S+](C)[O-])c2Cl)o1` (racemic) [2-360, from WO2012126932, 2-chloro-N-(5-methyl-1,3,4-oxadiazol-2-yl)-3-[(rac)-methylsulfinyl]-4-(trifluoromethyl)benzamide, reference compound] was tested, and the “Herbicidal action against ALOMY” value (ALOMY) was 30%, the “Herbicidal action against AVEFA” value (AVEFA) was 0% and the “Herbicidal action against MATIN” value (MATIN) was 70%. The “Herbicidal action against POLCO” value (POLCO) was 20%, the “Herbicidal action against SETVI” value (SETVI [1]) was 50% and the “Herbicidal action against STEME” value (STEME [2]; 20 g a.i./ha) was 0%. The “Herbicidal action against STEME” value (STEME [2]; 80 g a.i./ha) was 70%, the “Herbicidal action against STEME” value (STEME [2]; 320 g a.i./ha) was 70% and the “Herbicidal action against VERPE” value (VERPE [3]; 20 g a.i./ha) was 0%. The “Herbicidal action against VERPE” value (VERPE [3]; 80 g a.i./ha) was 10%, the “Herbicidal action against CYPES” value (CYPES [4]) was 70% and the “Herbicidal action against ZEAMX” value (ZEAMX [5]; 320 g a.i./ha) was 60%. The “Herbicidal action against SETVI” value (SETVI [6]) was 80%, the “Herbicidal action against STEME” value (STEME [7]) was 0% and the “Herbicidal action against VERPE” value (VERPE [8]) was 20%. For the same compound, the “Herbicidal action against CYPES” value (CYPES [9]) was 50% and the “Damage to ZEAMX” value (ZEAMX [10]) was 20%.
In the case of `Cc1nnc(NC(=O)c2ccc(C(F)(F)F)c([S+]([O-])C3CC3)c2Cl)o1` (racemic) [Racemate known from WO2012126932, 2-chloro-N-(5-methyl-1,3,4-oxadiazol-2-yl)-3-[(rac)-cyclopropylsulfinyl]-4-(trifluoromethyl)benzamide, reference compound], the “Herbicidal action against ALOMY” value (ALOMY) is reported as 0%, the “Herbicidal action against AVEFA” value (AVEFA) is reported as 0% and the “Herbicidal action against LOLRI” value (LOLRI [11]) is reported as 0%. For the same compound, the “Damage to ZEAMX” value (ZEAMX [5]; 80 g a.i./ha) was 70%, the “Damage to GLXMA” value (GLXMA; 20 g a.i./ha) was 60% and the “Damage to GLXMA” value (GLXMA; 80 g a.i./ha) was 100%. For the same compound, the “Herbicidal action against DIGSA” value (DIGSA) was 80%, the “Herbicidal action against VERPE” value (VERPE [8]) was 40% and the “Herbicidal action against LOLRI” value (LOLRI [12]) was 30%. For the same compound, the “Damage to ZEAMX” value (ZEAMX [10]) was 20%, the “Damage to TRZAS” value (TRZAS) was 40% and the “Damage to BRSNW” value (BRSNW) was 100%.
